From US7304093B2, “Ketone compounds and compositions for cholesterol management and related uses” (Esperion Therapeutics, Inc., priority 2000, dated 2007)
Where two headings read alike, the source gives them in different places.

Legend:
primary rat hepatocytes = test: Inhibition of lipid synthesis ([1-14C]-acetate incorporation) in primary cultures of rat hepatocytes; type: cell-based; settings: Hepatocyte, 4 h incubation with [1-14C]-acetate
Method: Compounds were tested for inhibition of lipid synthesis in primary cultures of rat hepatocytes. Male Sprague-Dawley rats were anesthetized with intraperitoneal injection of sodium pentobarbital (80 mg/kg). Rat hepatocytes were isolated essentially as described by the method of Seglen (Seglen, P. O. Hepatocyte suspensions and cultures as tools in experimental carcinogenesis. J. Toxicol. Environ. Health 1979, 5, 551-560). Hepatocytes were suspended in Dulbecco's Modified Eagles Medium containing 25 mM D-glucose, 14 mM HEPES, 5 mM L-glutamine, 5 mM leucine, 5 mM alanine, 10 mM lactate, 1 mM pyruvate, 0.2% bovine serum albumin, 17.4 mM non-essential amino acids, 20% fetal bovine serum, […] and 20 μg/mL gentamycin) and plated at a density of 1.5×10^5 cells/cm^2 on collagen-coated 96-well plates. Four hours after plating, media was replaced with the same media without serum. Cells were grown overnight to allow formation of monolayer cultures. Lipid synthesis incubation conditions were initially assessed to ensure the linearity of [1-^14C]-acetate incorporation into hepatocyte lipids for up to 4 hours. Hepatocyte lipid synthesis inhibitory activity was assessed during incubations in the presence of 0.25 μCi [1-^14C]-acetate/well (final radiospecific activity in assay is 1 Ci/mol) and 0, 1, 3, 10, 30, 100 or 300 μM of compounds for 4 hours. At the end of the 4-hour incubation period, medium was discarded and cells were washed twice with ice-cold phosphate buffered saline and stored frozen prior to analysis. To determine total lipid synthesis, 170 μl of MicroScint-E® and 50 μl water was added to each well to extract and partition the lipid soluble products to the upper organic phase containing the scintillant. Lipid radioactivity was assessed by scintillation spectroscopy in a Packard TopCount NXT.

female obese Zucker rats = test: Serum lipid and glycemic control variables in chow-fed obese female Zucker rats, daily oral gavage for two weeks; type: in vivo, rat; settings: Rattus norvegicus; for change in vivo at 100 mg/kg: 100 mg/kg daily oral; for change in vivo at 59 mg/kg: 59 mg/kg daily oral
Method: Ten- to twelve-week old (400-500 grams) female Zucker fatty rats Cr1: (Zuc)-faBR were obtained from Charles River Laboratories. Animals were acclimated to the laboratory environment for seven days. During the acclimation and study period, animals were housed by group in shoebox polycarbonate cages on Cellu-Dri bedding. The temperature and humidity in the animals' quarters (68-78° F.; 30-75% RH) were monitored and the airflow in the room was sufficient to provide several exchanges per hour with 100% fresh filtered air. An automatic timing device provided an alternating 12-hour cycle of light and dark. Rats received pelleted Purina Laboratory Rodent Chow® (5001) prior to and during the drug intervention period except for a 6-hour phase prior to blood sampling. Fresh water was supplied ad libitum via an automatic watering system. Compounds were dissolved, suspended by mixing in a dosing vehicle consisting of 1.5% carboxymethylcellulose/0.2% Tween 20 or 20% ethanol and 80% polyethylene glycol-200 [v/v]. Dose volume of vehicle or vehicle plus each compound was set at 0.25% of body weight in order to deliver the appropriate dose. Doses were administered daily by oral gavage, approximately between 8-10 AM. Regarding blood sampling, animals were fasted for 6 hours prior to all blood collections. Prior to and after 7 days of dosing, a 1.0- to 2.0-mL sample of blood was collected by administering O2/CO2 anesthesia and bleeding from the orbital venous plexus. Following 14 days of dosing, blood was collected by cardiac puncture after euthanasia with CO2. All blood samples were processed for separation of serum and stored at −80° C. until analysis. Commercially available kits were used to determine serum triglycerides (Roche Diagnostic Corporation, Kit No. 148899 or Boehringer Mannheim, Kit No. 1488872), total cholesterol (Roche Diagnostic Corporation, Kit No. 450061), non-esterified fatty acids (Wako Chemicals, Kit No. 994-75409) and β-hydroxybutyrate (Wako Chemicals, Kit No. 417-73501 or Sigma Kit. No. 310-0) on a Hitachi 912 Automatic Analyzer (Roche Diagnostic Corporation). In some instances, an in-house cholesterol reagent was used to determine total serum cholesterol levels. Serum lipoprotein cholesterol levels were determined by lipoprotein profile analysis. Lipoprotein profiles were analyzed using gel-filtration chromatography on a Superose 6HR (1×30 cm) column equipped with on-line detection of total cholesterol as described by Kieft et al (Kieft, K. A.; Bocan, T. M.; Krause, B. R. Rapid on-line determination of cholesterol distribution among plasma lipoproteins after high-performance gel filtration chromatography. J. Lipid Res. 1991, 32, 859-866.). The total cholesterol content of each lipoprotein was calculated by multiplying the independent values determined for serum total cholesterol by the percent area of each lipoprotein in the profile. The percent body weight gain and the ratio of liver to body weight is also determined. Selected data are shown as absolute values or as a percent change of the pretreatment values in Tables 8 and 9.
Select compounds (214c, 210c, and 210g) were further evalutated in the Zucker rat by performing a full dose response and measuring additional scrum variables including markers for diabetes (Tables 10-12).

[1] = 168 h, 1 wk, 100% = 2-fold increase, Table 8, read-out: HDL-Cholesterol, Percent Change from Pre-Treatment
[2] = 168 h, 1 wk, 100% = 2-fold increase, Table 8, read-out: NonHDL-Cholesterol, Percent Change from Pre-Treatment
[3] = 168 h, 1 wk, 100% = 2-fold increase, Table 8, read-out: TG, Percent Change from Pre-Treatment
[4] = 336 h, 2 wk, 100% = 2-fold increase, Table 8, read-out: HDL-Cholesterol, Percent Change from Pre-Treatment
[5] = 336 h, 2 wk, 100% = 2-fold increase, Table 8, read-out: NonHDL-Cholesterol, Percent Change from Pre-Treatment
[6] = 336 h, 2 wk, 100% = 2-fold increase, Table 8, read-out: TG, Percent Change from Pre-Treatment
[7] = 168 h, 1 wk, Table 9, read-out: HDL-Cholesterol, Percent Change from Pre-Treatment
[8] = 168 h, 1 wk, Table 9, read-out: NonHDL-Cholesterol, Percent Change from Pre-Treatment
[9] = 168 h, 1 wk, Table 9, read-out: TG, Percent Change from Pre-Treatment
[10] = 336 h, 2 wk, Table 9, read-out: HDL-Cholesterol, Percent Change from Pre-Treatment
[11] = 336 h, 2 wk, Table 9, read-out: NonHDL-Cholesterol, Percent Change from Pre-Treatment
[12] = 336 h, 2 wk, Table 9, read-out: TG, Percent Change from Pre-Treatment

CC(C)(CCCCC(=O)CCCCC1(C(=O)O)CC1)C(=O)O [Compound 107c, 11-(1-Carboxycyclopropyl)-2,2-dimethyl-7-oxoundecanoic acid]
melting point: 49 to 52 °C | IC50 (primary rat hepatocytes; Table 6): 0.6 µM | change in vivo at 100 mg/kg (female obese Zucker rats; [1]): 104% | change in vivo at 100 mg/kg (female obese Zucker rats; [2]): -84% | change in vivo at 100 mg/kg (female obese Zucker rats; [3]): -93% | change in vivo at 100 mg/kg (female obese Zucker rats; [4]): 248% | change in vivo at 100 mg/kg (female obese Zucker rats; [5]): -20% | change in vivo at 100 mg/kg (female obese Zucker rats; [6]): -64%

O=C(CCCCC1(C(=O)O)CC1)CCCCC1(C(=O)O)CC1 [Compound 107d, 1-[9-(1-Carboxycyclopropyl)-5-oxononyl]-1-cyclopropanecarboxylic acid]
melting point: 132 to 134 °C | IC50 (primary rat hepatocytes; Table 6): 0.3 µM | change in vivo at 100 mg/kg (female obese Zucker rats; [1]): 180% | change in vivo at 100 mg/kg (female obese Zucker rats; [2]): 22% | change in vivo at 100 mg/kg (female obese Zucker rats; [3]): -51% | change in vivo at 100 mg/kg (female obese Zucker rats; [4]): 260% | change in vivo at 100 mg/kg (female obese Zucker rats; [5]): 63% | change in vivo at 100 mg/kg (female obese Zucker rats; [6]): -28%

CC(C)(CCCCC(=O)CCCCC1(C(=O)O)CCC1)C(=O)O [Compound 107e, 11-(1-Carboxycyclobutyl)-2,2-dimethyl-7-oxoundecanoic acid]
melting point: 53 to 55 °C | IC50 (primary rat hepatocytes; Table 6): 6 µM | change in vivo at 100 mg/kg (female obese Zucker rats; [1]): 30% | change in vivo at 100 mg/kg (female obese Zucker rats; [2]): 4% | change in vivo at 100 mg/kg (female obese Zucker rats; [3]): -54% | change in vivo at 100 mg/kg (female obese Zucker rats; [4]): 60% | change in vivo at 100 mg/kg (female obese Zucker rats; [5]): 28% | change in vivo at 100 mg/kg (female obese Zucker rats; [6]): -51%

O=C(CCCCC1(C(=O)O)CCC1)CCCCC1(C(=O)O)CCC1 [Compound 107f, 1-[9-(1-Carboxycyclobutyl)-5-oxononyl]-1-cyclo-butanecarboxylic acid]
melting point: 69 to 70 °C | IC50 (primary rat hepatocytes; Table 6): 121 µM | change in vivo at 100 mg/kg (female obese Zucker rats; [1]): -1% | change in vivo at 100 mg/kg (female obese Zucker rats; [2]): -32% | change in vivo at 100 mg/kg (female obese Zucker rats; [3]): -58% | change in vivo at 100 mg/kg (female obese Zucker rats; [4]): 10% | change in vivo at 100 mg/kg (female obese Zucker rats; [5]): -40% | change in vivo at 100 mg/kg (female obese Zucker rats; [6]): -59%

O=C(CCCCC1(C(=O)O)CCCC1)CCCCC1(C(=O)O)CCCC1 [Compound 107g, 1-[9-(1-Carboxycyclopentyl)-5-oxononyl]-1-cyclopentanecarboxylic acid]
melting point: 99 to 103 °C | IC50 (primary rat hepatocytes; Table 6): 113 µM | change in vivo at 100 mg/kg (female obese Zucker rats; [1]): 36% | change in vivo at 100 mg/kg (female obese Zucker rats; [2]): -68% | change in vivo at 100 mg/kg (female obese Zucker rats; [3]): -67% | change in vivo at 100 mg/kg (female obese Zucker rats; [4]): 40% | change in vivo at 100 mg/kg (female obese Zucker rats; [5]): -67% | change in vivo at 100 mg/kg (female obese Zucker rats; [6]): -70%

CC(C)(CCCCCC(=O)CCCCCC1(C(=O)O)CC1)C(=O)O [Compound 107k, 13-(1-Carboxycyclopropyl)-2,2-dimethyl-8-oxotridecanoic acid]
melting point: 65 to 66 °C | IC50 (primary rat hepatocytes; Table 6): 1 µM | change in vivo at 100 mg/kg (female obese Zucker rats; [1]): 43% | change in vivo at 100 mg/kg (female obese Zucker rats; [2]): -90% | change in vivo at 100 mg/kg (female obese Zucker rats; [3]): -93% | change in vivo at 100 mg/kg (female obese Zucker rats; [4]): 84% | change in vivo at 100 mg/kg (female obese Zucker rats; [5]): -99% | change in vivo at 100 mg/kg (female obese Zucker rats; [6]): -98%

O=C(CCCCCC1(C(=O)O)CC1)CCCCCC1(C(=O)O)CC1 [Compound 107l, 1-[11-(1-Carboxycyclopropyl)-6-oxoundecyl]-1-cyclopropanecarboxylic acid]
melting point: 122 to 123 °C | IC50 (primary rat hepatocytes; Table 6): 0.5 µM | change in vivo at 100 mg/kg (female obese Zucker rats; [1]): 136% | change in vivo at 100 mg/kg (female obese Zucker rats; [2]): -92% | change in vivo at 100 mg/kg (female obese Zucker rats; [3]): -95% | change in vivo at 100 mg/kg (female obese Zucker rats; [4]): 171% | change in vivo at 100 mg/kg (female obese Zucker rats; [5]): -83% | change in vivo at 100 mg/kg (female obese Zucker rats; [6]): -94%

O=C(CCCCCC1(C(=O)O)CCCC1)CCCCCC1(C(=O)O)CCCC1 [Compound 107m, 1-[11-(1-Carboxycyclopentyl)-6-oxoundecyl]-1-cyclopentanecarboxylic acid]
melting point: 78 to 85 °C | IC50 (primary rat hepatocytes; Table 6): 2 µM | change in vivo at 100 mg/kg (female obese Zucker rats; [1]): 12% | change in vivo at 100 mg/kg (female obese Zucker rats; [2]): -54% | change in vivo at 100 mg/kg (female obese Zucker rats; [3]): -63% | change in vivo at 100 mg/kg (female obese Zucker rats; [4]): 27% | change in vivo at 100 mg/kg (female obese Zucker rats; [5]): -32% | change in vivo at 100 mg/kg (female obese Zucker rats; [6]): -48%

CC(CCCC(=O)CCCC(C)(C(=O)O)c1ccccc1)(C(=O)O)c1ccccc1 (stereo not shown) [Compound 210b, 2,10-Dimethyl-6-oxo-2,10-diphenylundecanedioic acid]
melting point: 44 to 46 °C | change in vivo at 100 mg/kg (female obese Zucker rats; [7]): 4% | change in vivo at 100 mg/kg (female obese Zucker rats; [8]): 36% | change in vivo at 100 mg/kg (female obese Zucker rats; [9]): 10% | change in vivo at 100 mg/kg (female obese Zucker rats; [10]): 12% | change in vivo at 100 mg/kg (female obese Zucker rats; [11]): 65% | change in vivo at 100 mg/kg (female obese Zucker rats; [12]): 26%

CC(C)(Cc1cccc(C(=O)c2cccc(CC(C)(C)C(=O)O)c2)c1)C(=O)O [Compound 231, 3-{3-[3-(2-Carboxy-2-methylpropyl)-benzoyl]-phenyl}-2,2-dimethylpropionic acid]
melting point: 46 to 48 °C | change in vivo at 59 mg/kg (female obese Zucker rats; [7]): 2% | change in vivo at 59 mg/kg (female obese Zucker rats; [8]): -43% | change in vivo at 59 mg/kg (female obese Zucker rats; [9]): -24% | change in vivo at 59 mg/kg (female obese Zucker rats; [10]): 7% | change in vivo at 59 mg/kg (female obese Zucker rats; [11]): 34% | change in vivo at 59 mg/kg (female obese Zucker rats; [12]): 7%

CC(C)(CO)Cc1cccc(C(=O)c2cccc(CC(C)(C)CO)c2)c1 [Compound 232, Bis[3-(3-hydroxy-2,2-dimethylpropyl)-phenyl]-methanone]
IC50 (primary rat hepatocytes; Table 7, ranges: confidence of estimate insufficient to assign a value): 52 µM | change in vivo at 100 mg/kg (female obese Zucker rats; [7]): 1% | change in vivo at 100 mg/kg (female obese Zucker rats; [8]): -15% | change in vivo at 100 mg/kg (female obese Zucker rats; [9]): -29% | change in vivo at 100 mg/kg (female obese Zucker rats; [10]): -11% | change in vivo at 100 mg/kg (female obese Zucker rats; [11]): -5% | change in vivo at 100 mg/kg (female obese Zucker rats; [12]): -8%
